Patent US11008355B2, “Crystal of 3'-sialyllactose sodium salt n-hydrate, and process for producing same” (KYOWA HAKKO BIO CO., LTD., priority 2016, dated 2021)
Where two headings read alike, the source gives them in different places.

What was measured:
[1] = pH of aqueous solution of the crystal; format: physicochemical; conditions: aqueous solution at 50 g/L as a crystal of 3SL sodium salt 8.0-hydrate
Experimental: As for the pH, an aqueous solution at 50 g/L as a crystal of 3SL sodium salt 8.0-hydrate was measured. The melting point was measured using Melting Point M-565 (manufactured by BUCHI Corporation) under a condition of 50° C. to 200° C. and 0.5° C./min according to the instruction book.

[2] = 30° C., relative humidity of 80%; for Change in weight with lapse of time (in words): up to 8 hours
Experimental: Storage conditions: 30° C., relative humidity of 80% (apparatus: THE051FA, manufactured by Advantec Toyo Kaisha Ltd.)
Measurement method: After about 100 mg of a sample was weighed with a precision balance, the sample was packed in a glass container and stored under the above-mentioned conditions. Thereafter, the sample was weighed again, and the weight change ratio was calculated.
Incidentally, the weight of the sample at each elapsed time was measured by assuming the weight of each sample at the start of the test to be 100%.

[3] = 50° C., relative humidity of 50%, HPLC, wt %
Experimental: Storage conditions: 50° C., relative humidity of 50% (adjusted with saturated sodium bromide solution)
Measurement method: About 5 g of a sample was weighed with a precision balance, the sample was packed in a glass container, and the amount of impurities (glucose, lactose, sialic acid) after heating was evaluated by HPLC (“%” in Table 5 represents “wt %”).

SMILES	pH [1]	Change in weight with lapse of time (in words) [2]	Weight of sample (weight at start of test = 100%) ([2]; elapsed time 0 hours)	Weight of sample (weight at start of test = 100%) ([2]; elapsed time 0.5 hours)	Weight of sample (weight at start of test = 100%) ([2]; elapsed time 2.5 hours)	Weight of sample (weight at start of test = 100%) ([2]; elapsed time 8 hours)	Glucose (impurity amount) ([3]; elapsed days 0)	Lactose (impurity amount) ([3]; elapsed days 0)	Sialic acid (impurity amount) ([3]; elapsed days 0)	Glucose (impurity amount) ([3]; elapsed days 2)	Lactose (impurity amount) ([3]; elapsed days 2)	Sialic acid (impurity amount) ([3]; elapsed days 2)	Glucose (impurity amount) ([3]; elapsed days 4)	Lactose (impurity amount) ([3]; elapsed days 4)	Sialic acid (impurity amount) ([3]; elapsed days 4)
CC(=O)NC1C(O)CC(OC2C(O)C(CO)OC(OC3C(CO)OC(O)C(O)C3O)C2O)(C(=O)[O-])OC1C(O)C(O)CO.O.O.O.O.O.O.O.O.[Na+] (centres unmarked) [Example 2, 3SL sodium salt 8.0-hydrate]	6.00	almost no change in weight	100.0%	100.2%	99.9%	99.9%	0.03%	0.01%	0.08%	0.04%	0.01%	0.10%	0.04%	0.02%	0.09%
CC(=O)N[C@H]1[C@H]([C@H](O)[C@H](O)CO)O[C@@](O[C@H]2[C@@H](O)[C@@H](CO)O[C@@H](O[C@H]3[C@H](O)[C@@H](O)C(O)O[C@@H]3CO)[C@@H]2O)(C(=O)[O-])C[C@@H]1O.[Na+] (some centres unmarked) [Freeze-dried product, amorphous 3SL sodium, reference compound]	–	–	–	–	–	–	0.11%	0.02%	0.14%	0.14%	0.03%	0.21%	0.16%	0.07%	0.26%
CC(=O)N[C@H]1[C@H]([C@H](O)[C@H](O)CO)O[C@@](O[C@H]2[C@@H](O)[C@@H](CO)O[C@@H](O[C@H]3[C@H](O)[C@@H](O)C(O)O[C@@H]3CO)[C@@H]2O)(C(=O)[O-])C[C@@H]1O.[Na+] (some centres unmarked) [amorphous, 3SL sodium reagent, reference compound]	–	increase in weight	100.0%	123.1%	130.5%	130.4%	–	–	–	–	–	–	–	–	–
